This note sets out measurements from US20250135006A1, “AMPHIPHILIC TLR7/8 ADJUVANTS AND USES THEREOF” (Pfizer Inc., priority 2023, published 2025).

In test [1] the target is T1, human toll like receptor 7 (hTLR7) (Homo sapiens, UniProt Q9NYK1).
T1 construct: host or cells: HEK293 (HEK-Blue hTLR7)
T1 sequence (Q9NYK1 27-1049): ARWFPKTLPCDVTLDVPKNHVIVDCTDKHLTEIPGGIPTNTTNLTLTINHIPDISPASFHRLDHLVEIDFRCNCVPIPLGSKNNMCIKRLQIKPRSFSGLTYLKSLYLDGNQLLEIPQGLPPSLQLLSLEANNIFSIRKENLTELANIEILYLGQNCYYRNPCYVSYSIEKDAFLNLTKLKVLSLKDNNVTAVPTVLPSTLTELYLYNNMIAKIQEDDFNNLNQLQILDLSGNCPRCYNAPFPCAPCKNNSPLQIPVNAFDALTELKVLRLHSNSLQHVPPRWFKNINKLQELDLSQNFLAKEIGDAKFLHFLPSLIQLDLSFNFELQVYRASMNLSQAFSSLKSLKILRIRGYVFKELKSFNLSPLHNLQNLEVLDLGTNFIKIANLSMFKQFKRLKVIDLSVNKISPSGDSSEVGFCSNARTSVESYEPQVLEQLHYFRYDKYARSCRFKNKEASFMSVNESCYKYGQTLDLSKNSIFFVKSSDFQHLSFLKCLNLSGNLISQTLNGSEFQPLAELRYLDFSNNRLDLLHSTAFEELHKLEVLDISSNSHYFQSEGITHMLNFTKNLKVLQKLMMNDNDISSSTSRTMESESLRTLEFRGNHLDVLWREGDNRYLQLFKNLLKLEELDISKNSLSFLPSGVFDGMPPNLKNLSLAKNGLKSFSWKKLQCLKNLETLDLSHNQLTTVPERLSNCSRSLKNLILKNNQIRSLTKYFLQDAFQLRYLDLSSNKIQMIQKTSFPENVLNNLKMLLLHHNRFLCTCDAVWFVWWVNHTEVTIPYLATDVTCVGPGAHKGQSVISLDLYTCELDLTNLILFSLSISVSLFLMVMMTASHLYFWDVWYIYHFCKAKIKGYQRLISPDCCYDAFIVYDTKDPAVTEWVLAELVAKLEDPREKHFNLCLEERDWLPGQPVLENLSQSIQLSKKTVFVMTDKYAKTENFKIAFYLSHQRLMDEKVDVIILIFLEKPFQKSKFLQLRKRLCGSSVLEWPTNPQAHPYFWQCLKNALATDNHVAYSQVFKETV
The test is described as follows: hTLR7 in-vitro functional assay (HEK-Blue hTLR7 SEAP reporter). The test is classed as cell-based. The following applies: HEK-Blue hTLR7 cells, overnight incubation. From the text:
(§1) To determine the ability of test compounds to activate the human toll like receptor 7 (hTLR7) or human toll like receptor 8 (hTLR8), cell-based reporter systems were utilized. HEK293 cells stably overexpressing either hTLR7 or hTLR8 along with a reporter gene containing an optimized secreted embryonic alkaline phosphatase gene (SEAP), under the control of the IFN-b minimal promoter fused to five NF-kB and AP-1-binding sites, were obtained from Invivogen (HEK-Blue™ hTLR7, cat #Hkb-htlr7; HEK-Blue™ hTLR8, cat #Hkb-htlr8). Stimulation of hTLR7 or hTLR8 in these cells activates NF-kB and AP-1 and induces the production of SEAP which can be quantified using an alkaline phosphatase detection reagent.
(§2) On day one of the assay, compounds were prepared using 11-point half-log serial dilutions from a 10 mM DMSO stock solution and 50 nL was spotted into 384-well plates (PerkinElmer, cat #6007480). Positive and negative controls were also spotted within the assay plate and were used to determine percent effect during the analysis process. After resuspension in DMEM assay media containing FBS heat inactivated (10%), Glutamax (2 mM) and Penicillin/Streptomycin, 10,000 cells/20 ul/well were added to previously prepared compound plates. Plates were incubated overnight (16-20 hrs) at 37° C. in a 5% CO2 environment. Prewetted Microclime lids (Labcyte, LLS-0310) were used to prevent evaporation. On day two of the assay, QUANTI-Blue™ detection reagent was prepared by reconstituting QUANTI-Blue™ powder (InvivoGen, Rep-qb1) with 100 ml of sterile water and allowed to equilibrate to 37° C. for 15 minutes. 20 ul of QUANTI-Blue™ detection reagent was added to each well and plates were incubated at room temperature for 180 min. At the end of the incubation, plates were read on an Envision (Perkin Elmer) plate reader capturing absorbance at 650 nm.
(§3) Using Positive (tool compound) and Negative (DMSO) controls, the percent (%) effect was calculated for each sample using the following equation: […]
(§4) The % effect at each concentration of compound was calculated utilizing the ABase software suite (IBDS) and was relative to the amount of SEAP produced in the positive and negative control wells contained within each assay plate. The concentrations and % effect values for test compounds were fit using a 4-parameter logistic model in ABase and the concentration of compound that produced 50% response (EC50) was calculated.

Test [2] addresses T2, human toll like receptor 8 (hTLR8) (Homo sapiens, UniProt Q9NR97).
T2 construct: host or cells: HEK293 (HEK-Blue hTLR8)
T2 sequence (Q9NR97 27-1041): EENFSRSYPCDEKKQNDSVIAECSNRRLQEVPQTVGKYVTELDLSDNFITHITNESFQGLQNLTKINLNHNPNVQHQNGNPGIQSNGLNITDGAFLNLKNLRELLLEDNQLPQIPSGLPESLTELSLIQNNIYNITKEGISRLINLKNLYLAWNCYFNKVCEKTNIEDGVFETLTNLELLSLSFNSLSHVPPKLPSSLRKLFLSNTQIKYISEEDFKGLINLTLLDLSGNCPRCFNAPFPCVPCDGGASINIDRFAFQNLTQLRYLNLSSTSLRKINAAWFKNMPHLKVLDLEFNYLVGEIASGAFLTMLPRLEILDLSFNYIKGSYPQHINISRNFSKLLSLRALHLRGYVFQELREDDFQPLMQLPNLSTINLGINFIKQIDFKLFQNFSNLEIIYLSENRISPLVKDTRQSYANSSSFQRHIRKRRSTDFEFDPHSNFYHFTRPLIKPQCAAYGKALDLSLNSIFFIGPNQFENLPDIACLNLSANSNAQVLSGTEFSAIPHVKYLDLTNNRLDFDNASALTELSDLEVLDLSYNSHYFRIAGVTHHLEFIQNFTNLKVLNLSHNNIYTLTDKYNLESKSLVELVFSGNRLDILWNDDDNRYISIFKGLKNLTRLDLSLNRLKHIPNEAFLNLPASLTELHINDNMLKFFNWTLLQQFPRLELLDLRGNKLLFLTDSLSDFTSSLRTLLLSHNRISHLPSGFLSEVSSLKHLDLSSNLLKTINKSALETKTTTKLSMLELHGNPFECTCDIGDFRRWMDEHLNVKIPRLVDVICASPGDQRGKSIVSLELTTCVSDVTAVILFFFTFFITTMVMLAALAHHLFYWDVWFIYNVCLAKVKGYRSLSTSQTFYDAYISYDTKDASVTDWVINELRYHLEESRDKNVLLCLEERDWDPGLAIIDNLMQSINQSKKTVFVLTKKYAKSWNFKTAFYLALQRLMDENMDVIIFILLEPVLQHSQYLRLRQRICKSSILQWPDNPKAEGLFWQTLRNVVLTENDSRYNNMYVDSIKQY
Nature of the test: hTLR8 in-vitro functional assay (HEK-Blue hTLR8 SEAP reporter). The format is cell-based. Conditions: HEK-Blue hTLR8 cells, overnight incubation.
Source text: as §1, §2, §3, §4

Each structure is given as a SMILES string.

Take `CCCCc1nc2c(N)nc3cc(CCCN4CCN(CCCOCCOCCOCCOCCNC(=O)CCOCCOCCOCCOCCNC(=O)O[C@H]5CC[C@@]6(C)C(=CC[C@H]7[C@@H]8CC[C@H]([C@H](C)CCCC(C)C)[C@@]8(C)CC[C@@H]76)C5)CC4)ccc3c2n1CC(C)(CO)CO` [Compound 15, (20R)-cholest-5-en-3beta-yl {31-[4-(3-{4-amino-2-butyl-1-[3-hydroxy-2-(hydroxymethyl)-2-methylpropyl]-1H-imidazo[4,5-c]quinolin-7-yl}propyl)piperazin-1-yl]-15-oxo-3,6,9,12,19,22,25,28-octaoxa-16-azahentriacontan-1-yl}carbamate]: the EC50 (in general, the concentration giving half of the maximal effect) turned out to be 0.276 µM in test [1] and 17.6 µM in test [2].
The corresponding values for `CCCCc1nc2c(N)nc3cc(CCCN4CCN(CCCOCCOCCOCCOCCNC(=O)O[C@H]5CC[C@@]6(C)C(=CC[C@H]7[C@@H]8CC[C@H]([C@H](C)CCCC(C)C)[C@@]8(C)CC[C@@H]76)C5)CC4)ccc3c2n1CC(C)(CO)CO` [Compound 22, (20R)-cholest-5-en-3beta-yl {15-[4-(3-{4-amino-2-butyl-1-[3-hydroxy-2-(hydroxymethyl)-2-methylpropyl]-1H-imidazo[4,5-c]quinolin-7-yl}propyl)piperazin-1-yl]-3,6,9,12-tetraoxapentadecan-1-yl}carbamate] are 1.16 µM and 11.7 µM.
The corresponding values for `CCCCc1nc2c(N)nc3cc(CCCN4CCN(CCCOCCOCCOCCOCCOCCOCCOCCOCCOCCOCCOCCOCCOCCOCCOCCOCCNC(=O)O[C@H]5CC[C@@]6(C)C(=CC[C@H]7[C@@H]8CC[C@H]([C@H](C)CCCC(C)C)[C@@]8(C)CC[C@@H]76)C5)CC4)ccc3c2n1CC(C)(CO)CO` [Compound 14, (3beta,20R)-cholest-5-en-3-yl {51-[4-(3-{4-amino-2-butyl-1-[3-hydroxy-2-(hydroxymethyl)-2-methylpropyl]-1H-imidazo[4,5-c]quinolin-7-yl}propyl)piperazin-1-yl]-3,6,9,12,15,18,21,24,27,30,33,36,39,42,45,48-hexadecaoxahenpentacont-1-yl}carbamate] are 0.236 µM and 22.6 µM.
For `CCCCc1nc2c(N)nc3cc(CCCN4CCN(C(=O)CCOCCOCCOCCOCCOCCOCCOCCOCCOCCOCCOCCOCCNC(=O)O[C@H]5CC[C@@]6(C)C(=CC[C@H]7[C@@H]8CC[C@H]([C@H](C)CCCC(C)C)[C@@]8(C)CC[C@@H]76)C5)CC4)ccc3c2n1CC(C)(CO)CO` [Compound 20, (20R)-cholest-5-en-3beta-yl {39-[4-(3-{4-amino-2-butyl-1-[3-hydroxy-2-(hydroxymethyl)-2-methylpropyl]-1H-imidazo[4,5-c]quinolin-7-yl}propyl)piperazin-1-yl]-39-oxo-3,6,9,12,15,18,21,24,27,30,33,36-dodecaoxanonatriacontan-1-yl}carbamate], in that order: 0.443 µM and 21.8 µM.
On to `CCCCc1nc2c(N)nc3cc(CCCN4CCN(C(=O)CCOCCOCCOCCOCCNC(=O)O[C@H]5CC[C@@]6(C)C(=CC[C@H]7[C@@H]8CC[C@H]([C@H](C)CCCC(C)C)[C@@]8(C)CC[C@@H]76)C5)CC4)ccc3c2n1CC(C)(CO)CO` [Compound 12, (3beta,20R)-cholest-5-en-3-yl {15-[4-(3-{4-amino-2-butyl-1-[3-hydroxy-2-(hydroxymethyl)-2-methylpropyl]-1H-imidazo[4,5-c]quinolin-7-yl}propyl)piperazin-1-yl]-15-oxo-3,6,9,12-tetraoxapentadec-1-yl}carbamate], for which the values for the concentration giving a half-maximal response (EC50) in test [1] and in test [2] were 0.21 µM and 19.6 µM, respectively.
